Experimental data from the supplement of paper PMC10307832.

Key:
Assay in all cases: relative viability (nuclei count vs DMSO), 5 days (fraction); higher = more cells survive
[1] = compound: C1=CC(=CC=C1NC(=S)NNC2=C(C=C(C=C2[N+](=O)[O-])C(F)(F)F)[N+](=O)[O-])F [Kobe2602] + CC1(C)CCC(c2ccc(Cl)cc2)=C(CN2CCN(c3ccc(C(=O)NS(=O)(=O)c4ccc(N[C@H](CCN5CCOCC5)CSc5ccccc5)c(S(=O)(=O)C(F)(F)F)c4)cc3)CC2)C1 [Navitoclax] (partner 0.5 µM)
How it was run: (§1)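 Lung cancer cell lines in 1536-well plates got either a single drug or a fixed anchor-drug dose together with five library-drug doses (not always all listed) in √10 steps, by pin tool, on the day after seeding. Nuclei were counted after 5 days, and relative viability is the treated-to-vehicle ratio of nuclei counts. Values are medians of duplicate plates.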

[2] = compound: O[C@@H](COc1cccc2ncccc12)CN1CCN([C@@H]2c3ccccc3[C@@H]3[C@H](c4ccccc42)C3(F)F)CC1 [Zosuquidar] + CC(=O)Nc1cccc(-n2c(=O)n(C3CC3)c(=O)c3c(Nc4ccc(I)cc4F)n(C)c(=O)c(C)c32)c1 [Trametinib] (partner 0.02 µM)
How it was run: as §1

[3] = compound: COc1cc2nccc(Oc3ccc(NC(=O)C4(C(=O)Nc5ccc(F)cc5)CC4)cc3)c2cc1OC [Cabozantinib] + COc1cccc2cc(-c3nc([C@H]4CC[C@H](C(=O)O)CC4)n4ncnc(N)c34)[nH]c12 [OSI-027] (partner 0.5 µM)
How it was run: as §1

[4] = compound: O[C@@H](COc1cccc2ncccc12)CN1CCN([C@@H]2c3ccccc3[C@@H]3[C@H](c4ccccc42)C3(F)F)CC1 [Zosuquidar] + C[C@]1(O)C[C@@H](c2nc(-c3ccc4ccc(-c5ccccc5)nc4c3)c3c(N)nccn32)C1 [Linsitinib] (partner 1 µM)
How it was run: as §1

| Cell Line | relative viability ([1]; first compound 0.2 µM) | relative viability ([1]; first compound 0.6325 µM) | relative viability ([1]; first compound 2 µM) | relative viability ([1]; first compound 6.325 µM) | relative viability ([1]; first compound 20 µM) | relative viability ([2]; first compound 0.01 µM) | relative viability ([2]; first compound 0.03162 µM) | relative viability ([2]; first compound 0.1 µM) | relative viability ([2]; first compound 0.3162 µM) | relative viability ([2]; first compound 1 µM) | relative viability ([3]; first compound 0.02 µM) | relative viability ([3]; first compound 0.06325 µM) | relative viability ([3]; first compound 0.6325 µM) | relative viability ([3]; first compound 2 µM) | relative viability ([4]; first compound 0.01 µM) | relative viability ([4]; first compound 0.03162 µM) | relative viability ([4]; first compound 0.1 µM) | relative viability ([4]; first compound 0.3162 µM) | relative viability ([4]; first compound 1 µM) | relative viability ([3]; first compound 0.2 µM) |
| --- | --- | --- | --- | --- | --- | --- | --- | --- | --- | --- | --- | --- | --- | --- | --- | --- | --- | --- | --- | --- |
| PC-3 [JPC-3] | 0.833 | 0.775 | 0.76 | 0.847 | 0.717 | 0.78 | 0.628 | 0.667 | 0.692 | 0.699 | 0.652 | 0.934 | 0.925 | 0.768 | 0.945 | 0.956 | 0.817 | 0.929 | 0.981 | – |
| HARA | 1.22 | 1.19 | 1.16 | 1.06 | 1.11 | 0.833 | 0.938 | 0.772 | 1.03 | 0.541 | 0.309 | 0.633 | 0.57 | 0.555 | 0.84 | 0.993 | 0.959 | 1.04 | 1.11 | 0.377 |
| NCI-H2347 | 0.697 | 0.82 | 0.753 | 0.789 | 0.807 | 0.268 | 0.268 | 0.276 | 0.311 | 0.297 | 0.303 | 0.42 | – | 0.294 | 0.968 | 1 | 0.834 | 1.01 | 1.06 | 0.45 |
| LOU-NH91 | 0.702 | 0.816 | 0.644 | 0.697 | 0.68 | 0.782 | 0.809 | 0.695 | 0.808 | 0.785 | 0.65 | 0.744 | 0.652 | 0.704 | 0.937 | 0.927 | 0.736 | 1.03 | 0.913 | – |
| LC-2-ad | 0.378 | 0.374 | 0.453 | 0.371 | 0.404 | 0.91 | 0.901 | 0.812 | 0.92 | 0.911 | – | 0.933 | 0.839 | 0.729 | 0.776 | 0.857 | 0.873 | 0.797 | 0.895 | 0.74 |
| LCLC-97TM1 | 0.253 | 0.462 | 0.531 | 0.282 | 0.317 | 0.171 | 0.19 | – | 0.21 | 0.206 | 0.153 | 0.572 | 0.57 | 0.689 | 0.204 | 0.177 | – | 0.174 | 0.171 | 0.448 |
| EKVX | 0.926 | 0.926 | 0.955 | 0.88 | 0.9 | 0.33 | 0.415 | – | 0.359 | 0.335 | 0.655 | 0.981 | 0.679 | 0.778 | 1.05 | 1.06 | 0.731 | 0.922 | 1.05 | 0.637 |
| NCI-H441 | 0.602 | 0.807 | 0.601 | 0.575 | 0.679 | 0.417 | 0.464 | 0.345 | 0.557 | 0.437 | 0.428 | 0.653 | 0.564 | 0.559 | 0.505 | 0.594 | 0.498 | – | 0.478 | 0.663 |
| HCC-827 | 0.987 | 1.13 | 1.06 | 1.03 | 0.981 | 0.539 | 0.486 | 0.476 | 0.535 | 0.529 | 0.782 | 0.861 | 0.679 | 0.526 | 1 | 0.902 | 0.943 | 0.879 | 0.96 | – |
| NCI-H838 | 1.17 | 1.22 | 1.12 | 1.13 | 1.17 | 0.561 | 0.465 | 0.487 | 0.617 | 0.509 | 0.458 | 0.38 | 0.414 | 0.366 | 1.01 | 0.981 | 1.02 | 1.09 | 1.06 | 0.339 |
| CAL-12T | 1.2 | 1.25 | 1.31 | 1.39 | 1.2 | 0.327 | 0.449 | 0.262 | 0.442 | 0.32 | 0.588 | 0.688 | 0.715 | 0.645 | 0.776 | 0.979 | 0.549 | 0.894 | 0.841 | 0.711 |
| NCI-H2342 | – | – | – | – | – | 0.805 | 0.975 | 0.757 | 0.873 | 0.957 | 0.543 | 0.723 | 0.621 | 0.613 | – | – | – | – | – | 0.563 |
| SW 900 | – | – | – | – | – | 0.666 | 0.715 | – | 1.05 | 0.988 | 0.637 | 0.695 | 0.554 | 0.376 | – | – | – | – | – | 0.637 |
| IA-LM | – | 0.741 | 0.737 | 0.639 | 0.669 | – | – | – | – | – | – | – | – | – | 0.671 | 0.766 | 0.334 | 0.654 | 0.624 | – |
| EPLC-272H | 1.07 | 1.17 | 1.21 | 1.45 | 0.045 | 0.285 | 0.274 | 0.278 | 0.276 | 0.285 | 0.257 | 0.326 | 0.345 | 0.29 | 1.24 | 1.22 | 1.1 | 1.12 | 1.09 | 0.215 |
| A-427 | 1 | 0.945 | 0.934 | 0.97 | 0.459 | 0.795 | 0.871 | 0.77 | 0.82 | 0.741 | 0.375 | 0.537 | 0.486 | 0.472 | 1.09 | 1.14 | 0.971 | 1.15 | 1.11 | 0.468 |
| NCI-H727 | 0.392 | 0.431 | 0.356 | 0.389 | 0.456 | 0.391 | 0.378 | – | 0.394 | 0.383 | 0.491 | 0.73 | 0.617 | 0.445 | 0.328 | 0.343 | 0.335 | 0.237 | 0.274 | 0.58 |
